Results published in the supplement of paper PMC8149375.

Legend:
Details in all cases: treatment: drug alone; 5 days
786-O [1] = experiment: minimum viability across doses, drug alone, relative to DMSO (fraction); higher = less growth inhibition
Description: (§1)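 Primary HTS: 8 RCC cell lines treated with 8 doses (up to 10 uM) of each library drug alone for 5 days; viability read by CellTiter-Glo and normalised to DMSO. GI50 was fitted with XLfit (4-parameter), AUC is the area under the dose-response curve, and minimum viability is the lowest fraction of DMSO viability across doses.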

ACHN [2] = experiment: as above
Description: as §1

UO-31 [3] = experiment: as above
Description: as §1

CAKI-1 [4] = experiment: as above
Description: as §1

769-P [5] = experiment: as above
Description: as §1

SN12C [6] = experiment: as above
Description: as §1

TK-10 [7] = experiment: as above
Description: as §1

A498 [8] = experiment: as above
Description: as §1

786-O [9] = experiment: GI50, drug alone; higher = less potent
Description: as §1

ACHN [10] = experiment: GI50, drug alone; higher = less potent
Description: as §1

UO-31 [11] = experiment: GI50, drug alone; higher = less potent
Description: as §1

CAKI-1 [12] = experiment: GI50, drug alone; higher = less potent
Description: as §1

769-P [13] = experiment: GI50, drug alone; higher = less potent
Description: as §1

SN12C [14] = experiment: GI50, drug alone; higher = less potent
Description: as §1

TK-10 [15] = experiment: GI50, drug alone; higher = less potent
Description: as §1

A498 [16] = experiment: GI50, drug alone; higher = less potent
Description: as §1

786-O [17] = experiment: AUC of dose-response viability curve, drug alone (arbitrary (AUC of normalised viability)); higher = less growth inhibition
Description: as §1

ACHN [18] = experiment: as above
Description: as §1

UO-31 [19] = experiment: as above
Description: as §1

CAKI-1 [20] = experiment: as above
Description: as §1

769-P [21] = experiment: as above
Description: as §1

SN12C [22] = experiment: as above
Description: as §1

TK-10 [23] = experiment: as above
Description: as §1

A498 [24] = experiment: as above
Description: as §1

Structure (SMILES)	minimum viability across doses (786-O [1])	minimum viability across doses (ACHN [2])	minimum viability across doses (UO-31 [3])	minimum viability across doses (CAKI-1 [4])	minimum viability across doses (769-P [5])	minimum viability across doses (SN12C [6])	minimum viability across doses (TK-10 [7])	minimum viability across doses (A498 [8])	GI50, drug alone (786-O [9]) [µM]	GI50, drug alone (ACHN [10]) [µM]	GI50, drug alone (UO-31 [11]) [µM]	GI50, drug alone (CAKI-1 [12]) [µM]	GI50, drug alone (769-P [13]) [µM]	GI50, drug alone (SN12C [14]) [µM]	GI50, drug alone (TK-10 [15]) [µM]	GI50, drug alone (A498 [16]) [µM]	AUC of dose-response viability curve (786-O [17])	AUC of dose-response viability curve (ACHN [18])	AUC of dose-response viability curve (UO-31 [19])	AUC of dose-response viability curve (CAKI-1 [20])	AUC of dose-response viability curve (769-P [21])	AUC of dose-response viability curve (SN12C [22])	AUC of dose-response viability curve (TK-10 [23])	AUC of dose-response viability curve (A498 [24])
CC[C@@H]1C(=O)N(C)c2cnc(Nc3ccc(C(=O)NC4CCN(C)CC4)cc3OC)nc2N1C1CCCC1 [BI 2536]	0.0067	0.121	0.0104	0.121	0.049	0.0427	0.0909	0.0641	0.0101	0.0499	0.0839	0.0936	0.12	0.0549	0.317	0.458	0.585	1.37	1.61	1.78	1.58	1.37	1.91	1.97
COC(=O)c1ccc2c(c1)NC(=O)/C2=C(\Nc1ccc(N(C)C(=O)CN2CCN(C)CC2)cc1)c1ccccc1 [BIBF1120 (Vargatef)]	0.782	0.255	0.439	0.251	0.917	0.393	0.61	0.892	> 10	2.07	7.36	2.13	> 10	> 10	> 10	> 10	3.94	2.77	4.65	2.81	3.42	2.58	3.09	3.91
Cc1ccc(-n2nc(C(C)(C)C)cc2NC(=O)Nc2ccc(OCCN3CCOCC3)c3ccccc23)cc1 [BIRB 796 (Doramapimod)]	0.748	0.709	0.787	0.858	0.91	0.796	0.712	0.879	> 10	> 10	> 10	> 10	> 10	> 10	> 10	> 10	3.46	2.88	3.74	3.46	3.52	3.36	3.02	4.02
Nc1cc(C(F)(F)F)c(-c2cc(N3CCOCC3)nc(N3CCOCC3)n2)cn1 [BKM120 (NVP-BKM120)]	0.00247	0.0858	0.0226	0.0499	0.0668	0.0728	0.0981	0.134	0.179	0.887	1.45	0.608	1.57	1.67	0.641	1.93	1.56	2.31	2.65	2.31	2.57	2.23	2.2	2.89
CC(C)c1cnn2c(NCc3ccccc3)cc(NCCCCCCN)nc12.Cl [BS-181 HCl]	0.424	0.54	1.15	0.753	0.902	0.842	0.696	1.1	9.75	> 10	> 10	> 10	> 10	> 10	> 10	> 10	3.43	3.3	5.07	2.84	3.58	3.22	2.97	4.29
O=C(NCCCNc1nc(Nc2cccc(NC(=O)N3CCCC3)c2)ncc1I)c1cccs1 [BX-795]	0.00247	0.217	0.0155	0.17	0.149	0.458	0.218	0.917	0.0999	2.94	5.04	2.67	5.63	7.51	3.93	> 10	1.64	2.83	4.13	2.66	3.03	2.8	2.59	4.14
O=C(Nc1cccc(Nc2ncc(Br)c(NCCc3cnc[nH]3)n2)c1)N1CCCC1 [BX-912]	0.0508	0.251	0.961	0.139	0.587	0.266	0.292	0.742	2.04	4.2	> 10	2.07	> 10	5.44	5.33	> 10	2.16	3.08	3.91	2.59	3.15	2.94	2.81	4.04
Cc1nc(NC(=O)N2CCC[C@H]2C(N)=O)sc1-c1ccnc(C(C)(C)C(F)(F)F)c1 [BYL719]	0.155	0.396	0.927	0.502	0.762	0.638	0.404	0.982	1.65	8.55	> 10	> 10	> 10	> 10	4.8	> 10	1.81	2.83	3.94	3.13	3.47	2.83	2.54	4.11
CCN(CCO)CCCOc1ccc2c(Nc3cc(CC(=O)Nc4cccc(F)c4)n[nH]3)ncnc2c1 [Barasertib (AZD1152-HQPA)]	0.0818	0.583	0.767	0.449	0.408	0.74	0.703	1.04	0.194	> 10	> 10	2.08	4.36	> 10	> 10	> 10	1.76	2.71	3.35	2.49	2.81	3.06	2.94	4.38
